Measurements reported in patent publication US20200223826A1, “Glucose-6-Phosphate Dehydrogenase (G6PD)-Modulating Agents And Methods Of Treating G6PD Deficiency” (The Board of Trustees of the Leland Stanford Junior …, priority 2017, published 2020).

Assays:
[1] = target: aldehyde dehydrogenase 2 (ALDH2) (Homo sapiens, UniProt P05091); assay: Selectivity: dimerization or activity of other NAD/NADP+-dependent enzymes; format: biochemical
SH-SY5Y cells = assay: Cell viability assay, SH-SY5Y cells, with and without G6PD siRNA knockdown; format: cell-based, human
Method: Cell viability was measured using a Cell-Counting Kit-8 (CCK-8, Dojindo), utilizing WST-8 [2-(2-methoxy-4-nitrophenyl)-3-(4-nitrophenyl)-5-(2,4-disulfophenyl)-2H-tetrazolium monosodium salt, according to the manufacturer's instructions. Cells were subjected to serum starvation for 48 hours before measurement. Cells in 100 μL of medium per well were treated with 10 μL of CCK-8 solution and incubated for 2 hours at 37° C. The absorbance was read at 450 nm. Viability of lymphocytes was measured by staining with a 0.4% solution of trypan blue in buffered isotonic salt solution (pH 7.2). The viability was calculated as the number of viable cells (non-stained by the dye) divided by the total number of cells within the grids on the hemacytometer. Cells were treated with 1 μM of the compound 24 hours before the measurement.
Endogenous G6PD was knocked down in each cell line as follows; 2 pmol of siRNA G6PD (Santa Cruz Biotechnology) and 0.5 μg lipofectamine (Invitrogen) were diluted in 10 μL of Opti-MEM medium respectively and incubated for 5 minutes. The diluted siRNA was combined with diluted lipofectamine, which was followed by additional incubation for 20 minutes prior to the addition to cells in a 96-well plate.

[2] = system: lymphocytes carrying the Canton variant; assay: Cellular ROS measurement in lymphocytes; format: cell-based, human; settings: treatment with AG1 for 24 hours
Method: Cells in a 96-well plate were incubated with chloromethyl-2′,7′-dichlorodihydrofluorescein diacetate (CM-H2DCFDA) at a final concentration of 5 μM in HBSS (Hank's balanced salt solution) for 30 minutes at 37° C. After wash, cells were treated with Hoechst 33342 (1:10,000 dilution, Molecular Probes) to stain nuclei and incubated for another 10 minutes at 37° C. Cells were washed in HBSS, and the florescence was analyzed with excitation/emission at 485/525 nm. Cells were subjected to serum starvation (50-75%) for 48 hours to induce oxidative stress and treated with the compound for 24 hours before measurement. The signal was normalized to nuclei staining (excitation/emission at 350/470 nm).

[3] = target: T1, Canton G6PD in SH-SY5Y cells (Homo sapiens, UniProt P11413, R459L); assay: Stability of Canton G6PD in SH-SY5Y cells; format: cell-based
T1 construct: expressed in transfected cells; host or cells: SH-SY5Y neuroblastoma cells
T1 sequence (P11413 whole entry R459L): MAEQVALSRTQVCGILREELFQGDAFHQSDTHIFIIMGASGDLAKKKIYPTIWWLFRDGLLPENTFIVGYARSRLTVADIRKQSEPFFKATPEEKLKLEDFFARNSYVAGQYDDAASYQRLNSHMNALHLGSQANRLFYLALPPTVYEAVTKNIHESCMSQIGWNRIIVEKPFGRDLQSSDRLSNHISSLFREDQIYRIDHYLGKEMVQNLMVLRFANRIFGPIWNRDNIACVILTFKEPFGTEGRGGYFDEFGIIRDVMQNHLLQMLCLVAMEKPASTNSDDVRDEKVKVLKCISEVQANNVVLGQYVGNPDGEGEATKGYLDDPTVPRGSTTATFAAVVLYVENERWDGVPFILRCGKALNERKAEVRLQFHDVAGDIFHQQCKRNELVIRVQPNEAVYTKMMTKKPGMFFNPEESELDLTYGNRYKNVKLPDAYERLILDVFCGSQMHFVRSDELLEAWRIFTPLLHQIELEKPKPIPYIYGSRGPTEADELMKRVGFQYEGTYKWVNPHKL
Method: Prior to the cellular-based assays using SH-SH5Y cells, duration of overexpression of WT G6PD and Canton variant was examined by transfecting the cells seeded in a 12-well plate. The genes encoding human WT G6PD and Canton variant were first PCR-amplified, which was then inserted into pcDNA 3.1/myc-His C (ThermoFisher Scientific) using HindIII and XhoI. 0.5 μg of cDNA and 1.5 μg of lipofectamine (Invitrogen) were diluted in 50 μL of Opti-MEM medium respectively and incubated for 5 minutes. The diluted DNA was combined with diluted lipofectamine, which was followed by incubation for 20 minutes prior to the addition to cells.
The transfected cells were collected at different time points (up to 72 hours) and the overexpressed G6PD levels were examined by Western blot. The transfection was carried out in serum-starved cells. Once the duration of expression was confirmed, other cellular-based assays were performed.
50,000 cells (SH-SH5Y cells or fibroblast cells) or 100,000 cells (lymphocytes) were seeded in a 12-well plate and incubated overnight. The cells were subjected to serum starvation (50-75%) for 48 hours and treated with 50 μg/ml of cycloheximide at different time points (0-48 hours). The cells were treated with the compound (1 μM) for 48 hours together with cycloheximide. […]

[4] = target: T2, G6PD in lymphocyte lysates carrying the Canton variant (Homo sapiens, UniProt P11413, R459L); assay: G6PD activity in lymphocyte lysates; format: cell-based; settings: in the presence of AG1
T2 construct: host or cells: lymphocytes from a G6PD-deficient subject
T2 sequence (P11413 2-515 R459L limits assumed): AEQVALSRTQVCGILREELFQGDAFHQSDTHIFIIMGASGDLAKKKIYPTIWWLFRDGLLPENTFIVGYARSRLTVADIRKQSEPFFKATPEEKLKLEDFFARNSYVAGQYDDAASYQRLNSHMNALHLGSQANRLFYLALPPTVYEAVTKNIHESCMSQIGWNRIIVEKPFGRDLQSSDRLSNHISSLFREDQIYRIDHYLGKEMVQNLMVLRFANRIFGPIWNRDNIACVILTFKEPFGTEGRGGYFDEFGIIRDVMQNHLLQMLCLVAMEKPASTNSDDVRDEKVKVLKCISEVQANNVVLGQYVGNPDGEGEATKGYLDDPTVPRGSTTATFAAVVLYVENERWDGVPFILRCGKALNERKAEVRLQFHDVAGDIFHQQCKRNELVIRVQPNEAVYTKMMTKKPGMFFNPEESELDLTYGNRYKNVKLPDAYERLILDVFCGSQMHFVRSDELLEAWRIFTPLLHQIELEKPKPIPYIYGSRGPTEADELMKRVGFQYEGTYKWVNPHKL
Method: Lymphocytes derived from a normal subject (HG 00866) and a G6PD-deficient subject carrying Canton variant in G6PD (HG 02367) were purchased from Coriell Institute and cultured in RPMI 1640 supplemented with 15% fetal bovine serum (FBS), 100 U/ml penicillin, and 100 μg/ml streptomycin. An SH-SY5Y neuroblastoma cell line was cultured in Dulbecco's Modification of Eagle's Medium/Ham's F-12 50/50 Mix supplemented with 10% FBS, 100 U/ml penicillin, and 100 μg/ml streptomycin. A G6PD-deficient subject-derived fibroblast cell line carrying Mediterranean variant and normal fibroblast cell line as control were purchased from Coriell Institute (GM 01152) and ThermoFisher Scientific (C0135C), respectively, and cultured in minimum essential medium supplemented with 15% FBS, 100 U/ml penicillin, and 100 μg/ml streptomycin. All the cell lines were maintained at 37° C. in a humidified incubator with an atmosphere of 5% of CO2 and 95% air.
Enzyme activity was measured by monitoring NADPH production, which was coupled with diaphorase converting resazurin to fluorescent resorufin (excitation at 565 nm and emission at 590 nm); fluorescent signal was thus proportional to G6PD activity. Assays were performed at 25° C. and run for 5 minutes in buffer containing 50 mM Tris (pH 7.4), 0.5 mM EDTA, 3.3 mM MgCl2, 1 U/ml diaphorase, 0.1 mM resazurin. […]

Sequence of aldehyde dehydrogenase 2 (ALDH2) (P05091 18-517, species assumed): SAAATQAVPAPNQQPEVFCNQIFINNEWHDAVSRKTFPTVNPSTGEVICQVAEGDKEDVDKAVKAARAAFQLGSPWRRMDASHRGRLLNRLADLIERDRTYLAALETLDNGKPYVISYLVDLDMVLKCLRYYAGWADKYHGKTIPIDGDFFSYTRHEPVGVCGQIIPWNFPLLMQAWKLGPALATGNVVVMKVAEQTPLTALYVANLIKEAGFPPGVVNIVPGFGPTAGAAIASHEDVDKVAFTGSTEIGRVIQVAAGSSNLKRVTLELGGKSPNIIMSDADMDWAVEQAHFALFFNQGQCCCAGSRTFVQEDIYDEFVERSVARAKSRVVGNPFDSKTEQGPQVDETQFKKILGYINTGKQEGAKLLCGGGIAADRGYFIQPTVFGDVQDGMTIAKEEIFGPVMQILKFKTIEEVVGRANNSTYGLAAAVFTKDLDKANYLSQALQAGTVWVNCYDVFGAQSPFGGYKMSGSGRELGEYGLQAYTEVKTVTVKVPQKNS

SCCNCCc1c[nH]c2ccccc12 [AG1, 2-[2-(1H-indol-3-yl)ethylamino]ethanethiol]
effect on dimerization or activity [1]: no effect | increase of viability of SH-SY5Y cells (SH-SY5Y cells; 1 μM of AG1): 20% | effect on viability of SH-SY5Y cells (SH-SY5Y cells; G6PD knocked down by siRNA): no effect | ROS level [2]: decreased | stability of Canton G6PD [3]: increased | enhancement of enzymatic activity in lymphocyte lysates [4]: 78%
